Where two headings read alike, the source gives them in different places.
Columns and labels:
[1] = tested on: female Swiss-Webster mice; type: in vivo; conditions: for MORTAL. / SIGNIFICANT FINDINGS: 7 days
Experimental: Multi-dose toxicity study of Di-rhamnolipid W3CTS administered subcutaneously in female Swiss-Webster mice for 7 days recovery period. The effects of 7 daily subcutaneous injections of the 99.3% pure Di-rhamnolipid W3CTS, followed by 7-day recovery period, were determined in female Swiss-Webster mice. Five groups (3 mice per group) were administered W3CTS doses at 0.012; 1, 2; 60 and 120 mg/kg/day and vehicle. All animals were observed and weighed throughout the study for clinical signs of toxicity including skin injection sites. On study Day 13 (seven days after last injection, 6 days for group 5) all animals were euthanized. The thymus, liver, kidneys, spleen, heart and lungs were weighed and preserved.
No mortality occurred at any dose level. […] Abnormal clinical observations at some animals at groups (60 and 120 mg/kg) were limited to skin lesions at the injection sites. All skin lesions were healing at termination.
At necropsy, two animals from group 120 mg/kg had moderate enlargement of the spleen and liver and adhesions between liver, spleen, kidneys and peritoneum were seen also in one animal (See Table 1).
Histopathology of spleen, thymus, and liver and selected skin site lesions was performed on tissues from high dose group animals and one control. […] Histopathologic features of skin lesions included evidence of chronic active inflammation, co-existing with progressing ulceration and/or healing.

female ICR mice = test: Immunosuppression (cellular): oxazolone-induced delayed type hypersensitivity; type: in vivo, mouse; conditions: oxazolone-induced DTH
Description: Immunosuppression (cellular): Oxazolone-induced delayed type hypersensitivity of female ICR mice was negative.

[2] = Neonatal human fibroblast cell culture (proliferation, viability, apoptosis); type: cell-based; conditions: human, neonatal human fibroblasts; 100 μg/ml; presence of serum; read-out: inhibition of viability of fibroblasts
Experimental: (§1) At the same concentration of 100 μg/ml W3CTS increased apoptosis by 72%.

[3] = tested on: neonatal human fibroblasts; test: as above; type: cell-based
Experimental: as §1

[4] = target: dopamine D1 (human recombinant) (Homo sapiens, UniProt P21728); test: Dopamine D1 receptor binding of [3H]SCH23390; conditions: 100 μM in 0.5% DMSO
Experimental: At the concentration of 100 μM Di-rhamnolipid W3CTS in 0.5% DMSO, Di-rhamnolipid W3CTS inhibited 100% dopamine D1 (human recombinant) binding of [^3H] SCH23390. At the same concentration of 100 μM W3CTS in 0.5 DMSO measuring binding of [^3H]Spiperone to human dopamine D2L (human recombinant) was inhibited by 53%.

[5] = tested on: Swiss-Webster female mice; test: Acute cutaneous irritation, mouse ear assay (Part A); type: in vivo; conditions: single topical application, up to 24 hours
Experimental: Effects of Di-rhamnolipid W3CTS on TPA/pyr induced acute inflammation in the ears of Swiss-Webster female mice.
The aim of this study was two-fold. In Part A the potential of a single topical application of W3CTS to cause acute cutaneous irritation (up to 24 hours) was measured in a mouse ear assay system. […] The aim of Part B was to determine the effects of a single topical administration of W3CTS on acute dermal inflammation induced by TPA/pyr, Part B was designed to differentiate the ability of Di-rhamnolipid W3CTS at concentration 1 mg/ml to prevent, inhibit or reverse induced ear inflammation.

[6] = tested on: female Swiss-Webster mice; test: Induction and challenge phases of DTH in the mouse ear; type: in vivo
Description: Effects of Di-Rhamnolipid W3CTS on the Induction and Challenge Phases of DTH in Female Swiss-Webster Mice.
The aims of this study were first, to evaluate the in-vivo effects of Di-rhamnolipid W3CTS on aspects of a T-cell mediated immune response in mice and second, to determine if Di-rhamnolipid W3CTS was a sensitizing agent. This formed one of a series of studies to evaluate the toxicity and functionality of Di-rhamnolipid W3CTS.
The model used was induced delayed-type hypersensitivity (DTH) response in the mouse ear. In general, the DTH model involves administering a sensitizing agent mixed with an adjuvant, one or more occasions to prime the immune system. One to two weeks after the final induction and boost(s), animals are re-exposed to the sensitizing antigen, with a small volume injected intradermally in the ear, to elicit a secondary response (challenge). The ear swells during the secondary T-cell mediated response, and thus the change in ear thickness from prestimulation can be quantified. The present study had several sub-components testing different components of the immune response.
Parts A & B followed the standard procedure, in which the treatment test article, Di-rhamnolipid W3CTS, was administered topically concurrent to the challenge with sensitizing agent. Additionally, the effects of Di-rhamnolipid W3CTS on development of the primary immune response were also tested (Parts C&D). Therefore it was possible to obtain preliminary information about potential activity of Di-rhamnolipid W3CTS on more than one arm of the immune system. In parts B, C, and D, the protein ovalbumin, in CFA (Complete Freund's Adjuvant) or IFA (Incomplete Freund's Adjuvant) was used as the sensitizing agent as it is a standard with well-characterized, quantifiable activity in DTH. An additional compound, DNCB (1-chloro-2,4-di-nitro benzene) with gamma interferon (IFN-gamma), was also used (Group A) in order to maximize the opportunity to characterize the activity of Di-rhamnolipid W3CTS on T-cell mediated immunity. […]

dopamine D1 (human recombinant), sequence (P21728 whole entry): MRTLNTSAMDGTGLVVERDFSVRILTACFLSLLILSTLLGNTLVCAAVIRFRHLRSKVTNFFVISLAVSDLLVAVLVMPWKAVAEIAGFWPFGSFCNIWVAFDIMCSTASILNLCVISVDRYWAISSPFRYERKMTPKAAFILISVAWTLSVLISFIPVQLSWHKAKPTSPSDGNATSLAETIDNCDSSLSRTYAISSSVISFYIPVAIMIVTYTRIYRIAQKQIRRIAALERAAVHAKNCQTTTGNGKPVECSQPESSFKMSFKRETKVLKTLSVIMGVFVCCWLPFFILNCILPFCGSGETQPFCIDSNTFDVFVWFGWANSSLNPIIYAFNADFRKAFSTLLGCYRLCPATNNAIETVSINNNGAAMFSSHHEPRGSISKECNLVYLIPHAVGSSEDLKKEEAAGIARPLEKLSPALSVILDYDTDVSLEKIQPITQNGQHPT

SMILES: CCCCCCCC(CC(=O)O)OC(=O)CC(CCCCCCC)OC1OC(C)C(O)C(O)C1OC1OC(C)C(O)C(O)C1O (stereo not shown) [Di-rhamnolipid W3CTS]
- MORTAL. ([1]; 0.012 mg/kg/day s.c.): 0/3
- SIGNIFICANT FINDINGS ([1]; 0.012 mg/kg/day s.c.): None
- MORTAL. ([1]; 1.20 mg/kg/day s.c.): 0/3
- SIGNIFICANT FINDINGS ([1]; 1.20 mg/kg/day s.c.): None
- MORTAL. ([1]; 60 mg/kg/day s.c.): 0/3
- Histopathology: extramedullary hematopoiesis (mice) ([1]; 120 mg/kg/day s.c.): mouse, extramedullary hematopoiesis in 2
- Histopathology: thymic involution (mice) ([1]; 120 mg/kg/day s.c.): Histopathology: thymic involution in 1
- Necroscopy findings: adhesions between the liver and the spleen, kidneys and peritoneum (mice) ([1]; 120 mg/kg/day s.c.): spleen, kidneys and peritoneum (1/3
- MORTAL. ([1]; 120 mg/kg/day s.c.): 0/3
- Immunosuppression (cellular) (female ICR mice): negative
- cytotoxicity at 100 μg/ml [2]: 28%
- increase of apoptosis of fibroblasts ([3]; 100 μg/ml, presence of serum): 72%
- cell proliferation and viability, fibroblasts ([3]; 200 μg/ml and 500 μg/ml, causing necrosis): fully inhibited cell proliferation and viability
- inhibition at 100 µg/mL ([3]; Homo sapiens, Fibroblast, 100 μg/ml, presence of serum): 46%
- inhibition at 100 µM [4]: 100%
- acute cutaneous irritation (ear erythema) [5]: did not cause acute cutaneous irritation
- effect on subsequent DTH response (Part C) ([6]; concurrently administered at induction with ovalbumin/IFA): inhibit the subsequent DTH response
- effect on primary immune response (Part D) ([6]; given at induction): did not show potential to enhance a primary immune response
- effect on secondary immune response, DTH (Part B) ([6]; topical at challenge, ovalbumin/CFA): sustained or increased DTH response
